Key:
[1] = Sensory evaluation of sweetness (sweetening potency) relative to sucrose; details: for Sweetness (sweetening potency): sensory evaluation; for sweetness potency: values compared to sweetening potency of a 4% aqueous solution of sucrose
From the text: For example, the sweetness of N-[N-[3-(3-hydroxy-4-methoxyphenyl)-3-methylbutyl]-L-α-aspartyl]-L-phenylalanine 1-methyl ester was approximately 70000 times that of sugar, the sweetness of N-[N-[3-(3-methyl-4 hydroxyphenyl)-3-methylbutyl]-L-α-aspartyl]-L-phenylalanine 1-methyl ester was approximately 70000 times that of sugar, the sweetness of N-[N-[3-(3-hydroxy-4-methylphenyl)-3-methylbutyl]-L-α- aspartyl]-L-phenylalanine 1-methyl ester was approximately 60000 times that of sugar, and the sweetness of N-[N-((RS)-3-(3 hydroxy-4-methoxyphenyl) butyl]-L-α-aspartyl]-L-phenylalanine 1-methyl ester was approximately 50000 times that of sugar. […] Sensory evaluations can be performed as described in, for example, B. T. Carr, S. D. Pecore, K. M. Gibes and G. E. Dubois, “Sensory Methods for Sweetner Evaluation” in Flavor Measurement, edited by C. T. Ho and C. H. Manley, Marcel Decker, Inc. (1992).

physchem = format: physicochemical

| half life in a buffer (physchem) | SMILES | Sweetness (sweetening potency) [1] | sweetness potency [1] | Sweetness (sweetening potency) ([1]; listed as Example 1) |
| --- | --- | --- | --- | --- |
| 43.6 h | COC(=O)[C@H](Cc1ccccc1)NC(=O)[C@H](CC(=O)O)NCCC(C)(C)c1ccc(O)cc1 [Compound 8, N-[N-[3-(4-hydroxyphenyl)-3-methylbutyl]-L-α-aspartyl]-L-phenylalanine 1 methyl ester] | 25000 times the sweetness of sugar | 25000 |  |
| 34.4 h | COC(=O)[C@H](Cc1ccccc1)NC(=O)[C@H](CC(=O)O)NCCC(C)(C)c1ccc(O)c(OC)c1 [Compound 9, N-[N-[3-(3-methoxy-4-hydroxyphenyl)-3-methylbutyl]-L-α-aspartyl)-L-phenylalanine 1 methyl ester] | 40000 times the sweetness of sugar | 40000 |  |
| 44.5 h | COC(=O)[C@H](Cc1ccccc1)NC(=O)[C@H](CC(=O)O)NCCC(C)(C)c1ccc(OC)c(O)c1 [Compound 10, N-[N-[3-(3-hydroxy-4-methoxyphenyl)-3-methylbutyl]-L-α-aspartyl]-L-phenylalanine 1-methyl ester] |  | 70000 | 70000 times the sweetness of sugar |
